The values that follow come from patent US6458781B1, “Substituted diarylalkyl amides as calcium channel antagonists” (priority 1998, dated 2002).

Data set [1] concerns sound-induced tonic convulsions in DBA/2 mice. The data set is described as follows: Audiogenic seizure model in DBA/2 mice. Type of data set: in vivo. The conditions noted are these: Mus musculus, protected/tested, read-out: Number of Mice Protected From Tonic Convulsions (converted); for responders at 30 mg/kg: 30 mg/Kg IV; for responders at 10 mg/kg: 10 mg/Kg IV. How it is done:
Audiogenic Seizure Model in DBA/2 Mice
A compound of the present invention was dissolved in water using 10% (weight/volume) Emulphor (GAF Corp., Wayne, N.J.) surfactant. Substances were administered by intravenous injection into the retro-orbital venous sinus of male mice (3-4 weeks old, Jackson Laboratories, Bar Harbour, Me.). All testing was preformed 15 minutes or 45 minutes after drug injection. Immediately before anticonvulsant testing, mice were placed upon a wire mesh, 4 inches square suspended from a steel rod. The square was slowly inverted through 180 degrees and mice observed for 30 seconds. Any mouse falling from the wire mesh was scored as ataxic.
Mice were placed into an enclosed acrylic plastic chamber (21 cm height, approximately 30 cm diameter) with a high-frequency speaker (4 cm diameter) in the center of the top lid. An audio signal generator (Protek model B-810) was used to produce a continuous sinusoidal tone that Was swept linearly in frequency between 8 kHz and 16 kHz once each 10 msec. The average sound pressure level (SPL) during stimulation was approximately 100 dB at the floor of the chamber. Mice were placed within the chamber and allowed to acclimatize for 1 minute. DBA/2 mice in the vehicle-treated group responded to the sound stimulus (applied until tonic extension occurred, or for a maximum of 60 sec) with a characteristic seizure sequence consisting of wild running followed by clonic seizures, and later by tonic extension, and finally by respiratory arrest and death in 80% or more of the mice. In vehicle-treated mice, the entire sequence of seizures to respiratory arrest lasts approximately 15-20 seconds.
The incidence of all the seizure phases in the drug-treated and vehicle-treated mice was recorded, and the occurrence of tonic seizures were used for calculating anticonvulsant ED50 values by probit analysis. Mice were used only once for testing at each time and dose point.

Data set [2] concerns K+ channels in SCG neurons. Description: Potassium current in superior cervical ganglion neurons (whole-cell voltage clamp). Type of data set: cell-based, rat. The method, then: (§1) Electrophysiological techniques were used to measure the effects of experimental compounds on voltage-gated Ca^2+, […] , and K^+ channels. […] Sodium and potassium channel currents were measured from acutely dissociated SCG neurons.
(§2) Dissociation of the neurons from the ganglia was accomplished using a 30 to 45 minute treatment in 0.25% trypsin, similar to methods outlined in Higgins, et al. (see Higgins D. et al. “Tissue culture of mammalian autonomic neurons.” In Banker G. and Goslin K. (Eds), Culturing Nerve Cells, Cambridge, Mass., MIT Press [1991]).
(§3) Ca^2+, Na^+, and K^+ channel currents in SCG neurons were measured using conventional single electrode whole-cell voltage-clamp techniques, outlined in Hamill et al., (see Hamill O. P. et al. “Improved patch-clamp techniques for high resolution current recordings from cells and cell-free membrane patches.”Pflugers Arch., 1981;391:85-100). For Ca^2+ channel experiments, the external bathing solution contained tetraethylammonium chloride (100 mM), choline chloride (52 mM), NaCl (15 mM), HEPES (10 mM), glucose (5.6 mM), CaCl2 (2 mM), and MgCl2 (0.8 mM), pH 7.35 with KOH; with the internal pipette solution containing cesium methane sulfonate (140 mM), EGTA (10 mM), and HEPES (10 mM), supplemented with 5 mM Mg^2+-ATP on the day of the experiment, pH 7.4 with CsOH. For Na^+ and K^+ channel experiments, the external bathing solution contained NaCl (150 mM), KCl (5 mM), MgCl2 (1.1 mM), CaCl2 (2.6 mM), Na-HEPES (10 mM), and glucose (10 mM), pH 7.4; with the internal pipette solution containing KCl (80 mM), K-gluconate (50 mM), HEPES (10 mM), and EGTA (10 mM), pH 7.4 with KOH. Experimental compounds were diluted into the external solution and applied to the soma of cells by local perfusion from large diameter (20-50 μm) glass micropipettes or from a U-tube applicator.
(§4) For Na^+ and K^+ channel currents, following the determination of the I/V relationship for each cell in control solution, currents were evoked from a holding potential between −65 and −55 mV by stepping every 10 sec to a test potential of either 0 mV for Na^+ or +50 mV for K^+ current for a duration of 35 msec. Peak inward current was measured for Na^+ and sustained current for K^+ channel currents. […] Test compounds were applied until steady-state block was achieved. Data were expressed as percent inhibition of control amplitudes for Na^+ and K^+ channel currents.

Data set [3] concerns the target T1, N-type Ca2+ channels in cultured superior cervical ganglion (SCG) neurons (Rattus norvegicus, UniProt Q02294).
T1 construct: from tissue
The data set is described as follows: Calcium current in superior cervical ganglion neurons (whole-cell voltage clamp). As to conditions: for inhibition at 1 µM: read-out: SCG Ca, % blockage at 1 μM; for inhibition at 10 µM: read-out: SCG Ca, % blockage at 10 μM. Type of data set: cell-based. The method, then:
as §1, §2, §3
After obtaining a whole-cell recording, Ca^2+ channels were elicited by stepping to test potentials between −40 and +20 mV for 120 msec from the holding potential of −90 mV to determine if the amplitude of the current and clamp control were adequate for evaluation of drug effects. Ca^2+ channel currents were evoked by stepping from a holding potentials between −65 mV and −55 mV to a test potential of +20 mV for 150 msec every 40 seconds. The amplitude of the Ca^2+ channel currents were compared before and during drug application and drug effects expressed as percent inhibition of the amplitude of control currents.

Data set [4] concerns the target T2, N-type calcium channels in IMR-32 cells (Homo sapiens, UniProt Q00975).
T2 construct: host or cells: IMR-32 cells differentiated with dibutyryl cAMP and bromodeoxyuridine
Description: N-type Ca2+ channel blocking potency in IMR-32 cells using Indo-1. The data set is classed as cell-based. As to conditions: for IC50: IMR-32 cells; for inhibition at 1 µM / inhibition at 10 µM: IMR-32, IMR-32 cells; for inhibition at 1 µM: read-out: IMR32 % blockage at 1 μM; for inhibition at 10 µM: read-out: IMR32 % blockage at 10 μM. Summed up:
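Differentiated IMR-32 cells loaded with Indo-1 AM were preincubated with compound and 5 μM nitrendipine (L-type block) for 10 min at 30° C in HEPES/Tris pH 7.4 HBSS with 0.5% BSA. Cells were depolarized with KCl/CaCl2, and the 400/490 nm emission ratio rise over basal was measured. IC50 came from a four-parameter logistic fit.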

The test system of data set [5] is Na+ channels in SCG neurons. The data set is described as follows: Sodium current in superior cervical ganglion neurons (whole-cell voltage clamp). The data set is classed as cell-based, rat. The conditions noted are these: at 10 μM. How it is done: as §1, §2, §3, §4
Data set [6] deals with electroshock-induced tonic extensor seizures in CF-1 mice. Description: Maximal electroshock testing. The conditions noted are these: protected/tested. The data set is classed as in vivo. The method, then:
Maximal Electroshock Testing
In this test, four representative compounds were tested for their anticonvulsant effects using the procedure described below.
Male CF-1 mice, 20 to 28 g, from Charles River Laboratories, Portage, Mich. were used in all experiments. Groups of 10 mice each were given various intravenous doses of test compound in aqueous solution with 10% Emulphan® Surfactant in a volume of 10 mL/kg of body weight. Electroshock was delivered by corneal electrodes with 60 Hz alternating current (50 mA root-mean-squared for 0.2 seconds) using a constant-current stimulator (Wahlquist Instruments, Salt Lake City, Utah). Untreated or saline-treated mice reliably had tonic extensor seizures with rearward extension of hindlimbs more than 3 seconds. These methods are similar to those published by Krall R. L.; Penry J. K.; White B. G.; and Kupferberg H. K. Antiepileptic Drug Development II. Anticonvulsant Drug Screening, Epilepsia, 1978; 19:409-428.

Data set [7] has as its target T3, L-type calcium channels in A10 cells (Rattus norvegicus, UniProt P22002).
T3 construct: which endogenously expresses L-type calcium channels; host or cells: A10 rat embryonic thoracic aorta smooth muscle cells
The data set is described as follows: L-type Ca2+ channel blocking potency in A10 cells (FLIPR). The conditions noted are these: read-out: FLPA10 IC50. The data set is classed as cell-based. In short, it runs like this: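 Rat A10 aortic smooth-muscle cells endogenously expressing L-type channels were loaded with Oregon Green BAPTA-1 and preincubated with compound for 5 min at 35 °C. Cells were then depolarized with 140 mM KCl buffer. Summed fluorescence above basal over 120 s gave % inhibition versus buffer-treated stimulated wells, with zero influx defined by 1.0×10^−6 M nitrendipine.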

Setting [8] is: 5 μM nitrendipine present, read-out: IMR32 IC50.
The mark [9] stands for this setting: 10 mg/Kg iv, 15 min posttreatment.
Setting [10] is: estimated from two data points, read-out: IMR32 IC50 (estimated IC50 values based on two data points).

The structures appear in SMILES notation. Counter-ions that a name gives are not always drawn. Like-named read-outs stand apart in the source and are kept apart here.

T3 sequence (P22002 whole entry): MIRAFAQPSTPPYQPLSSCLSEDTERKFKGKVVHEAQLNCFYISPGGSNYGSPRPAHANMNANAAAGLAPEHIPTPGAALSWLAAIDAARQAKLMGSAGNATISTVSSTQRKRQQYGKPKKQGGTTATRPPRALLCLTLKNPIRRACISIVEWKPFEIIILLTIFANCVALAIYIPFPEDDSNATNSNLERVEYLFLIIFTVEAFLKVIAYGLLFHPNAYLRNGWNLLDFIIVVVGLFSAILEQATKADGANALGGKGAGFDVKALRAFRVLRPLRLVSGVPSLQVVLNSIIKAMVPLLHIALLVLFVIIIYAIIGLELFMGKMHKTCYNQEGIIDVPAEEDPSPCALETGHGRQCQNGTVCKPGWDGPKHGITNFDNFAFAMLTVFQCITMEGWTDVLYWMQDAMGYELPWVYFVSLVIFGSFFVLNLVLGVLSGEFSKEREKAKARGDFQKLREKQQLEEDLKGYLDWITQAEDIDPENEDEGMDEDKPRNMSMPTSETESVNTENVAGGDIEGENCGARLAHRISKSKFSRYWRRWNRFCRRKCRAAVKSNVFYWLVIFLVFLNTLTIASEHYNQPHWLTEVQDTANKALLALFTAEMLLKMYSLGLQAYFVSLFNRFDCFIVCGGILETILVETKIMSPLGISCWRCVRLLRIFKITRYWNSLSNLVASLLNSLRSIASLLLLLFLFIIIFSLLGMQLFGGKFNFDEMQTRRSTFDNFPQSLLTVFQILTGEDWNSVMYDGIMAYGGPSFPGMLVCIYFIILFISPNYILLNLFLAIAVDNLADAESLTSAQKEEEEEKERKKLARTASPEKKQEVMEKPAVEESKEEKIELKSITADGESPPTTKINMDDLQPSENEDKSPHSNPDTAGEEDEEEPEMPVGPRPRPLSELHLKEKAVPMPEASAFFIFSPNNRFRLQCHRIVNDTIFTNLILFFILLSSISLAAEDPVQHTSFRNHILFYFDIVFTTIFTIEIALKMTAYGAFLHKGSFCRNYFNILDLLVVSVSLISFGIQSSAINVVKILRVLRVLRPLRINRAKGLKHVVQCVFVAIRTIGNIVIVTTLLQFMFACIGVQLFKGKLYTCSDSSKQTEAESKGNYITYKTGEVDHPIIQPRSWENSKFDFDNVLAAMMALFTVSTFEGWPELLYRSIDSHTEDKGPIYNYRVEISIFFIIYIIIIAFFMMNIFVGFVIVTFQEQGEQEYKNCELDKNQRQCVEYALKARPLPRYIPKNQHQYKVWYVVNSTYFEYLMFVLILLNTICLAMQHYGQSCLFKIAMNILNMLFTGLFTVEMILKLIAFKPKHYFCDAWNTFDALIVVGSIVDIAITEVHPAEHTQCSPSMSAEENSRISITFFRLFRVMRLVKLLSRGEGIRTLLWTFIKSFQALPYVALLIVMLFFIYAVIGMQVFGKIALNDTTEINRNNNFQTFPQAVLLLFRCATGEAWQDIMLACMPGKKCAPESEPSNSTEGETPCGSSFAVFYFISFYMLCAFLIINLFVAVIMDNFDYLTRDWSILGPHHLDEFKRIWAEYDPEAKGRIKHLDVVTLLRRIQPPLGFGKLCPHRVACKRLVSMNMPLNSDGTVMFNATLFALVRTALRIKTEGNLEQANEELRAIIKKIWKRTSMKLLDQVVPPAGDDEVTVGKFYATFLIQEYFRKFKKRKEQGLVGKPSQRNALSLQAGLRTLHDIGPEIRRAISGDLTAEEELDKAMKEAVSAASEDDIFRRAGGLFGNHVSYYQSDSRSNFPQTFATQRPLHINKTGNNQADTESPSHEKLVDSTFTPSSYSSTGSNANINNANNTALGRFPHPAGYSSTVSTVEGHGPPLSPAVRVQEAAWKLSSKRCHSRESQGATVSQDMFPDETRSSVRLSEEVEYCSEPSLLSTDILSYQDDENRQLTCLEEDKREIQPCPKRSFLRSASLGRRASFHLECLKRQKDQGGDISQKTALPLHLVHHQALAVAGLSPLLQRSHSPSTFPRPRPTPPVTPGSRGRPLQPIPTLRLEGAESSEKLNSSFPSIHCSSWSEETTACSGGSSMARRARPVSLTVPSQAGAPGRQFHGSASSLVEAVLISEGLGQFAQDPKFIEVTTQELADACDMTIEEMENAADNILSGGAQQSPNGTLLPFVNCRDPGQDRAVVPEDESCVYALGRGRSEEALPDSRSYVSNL
T3 sequence (P54290 25-944 partner limits assumed): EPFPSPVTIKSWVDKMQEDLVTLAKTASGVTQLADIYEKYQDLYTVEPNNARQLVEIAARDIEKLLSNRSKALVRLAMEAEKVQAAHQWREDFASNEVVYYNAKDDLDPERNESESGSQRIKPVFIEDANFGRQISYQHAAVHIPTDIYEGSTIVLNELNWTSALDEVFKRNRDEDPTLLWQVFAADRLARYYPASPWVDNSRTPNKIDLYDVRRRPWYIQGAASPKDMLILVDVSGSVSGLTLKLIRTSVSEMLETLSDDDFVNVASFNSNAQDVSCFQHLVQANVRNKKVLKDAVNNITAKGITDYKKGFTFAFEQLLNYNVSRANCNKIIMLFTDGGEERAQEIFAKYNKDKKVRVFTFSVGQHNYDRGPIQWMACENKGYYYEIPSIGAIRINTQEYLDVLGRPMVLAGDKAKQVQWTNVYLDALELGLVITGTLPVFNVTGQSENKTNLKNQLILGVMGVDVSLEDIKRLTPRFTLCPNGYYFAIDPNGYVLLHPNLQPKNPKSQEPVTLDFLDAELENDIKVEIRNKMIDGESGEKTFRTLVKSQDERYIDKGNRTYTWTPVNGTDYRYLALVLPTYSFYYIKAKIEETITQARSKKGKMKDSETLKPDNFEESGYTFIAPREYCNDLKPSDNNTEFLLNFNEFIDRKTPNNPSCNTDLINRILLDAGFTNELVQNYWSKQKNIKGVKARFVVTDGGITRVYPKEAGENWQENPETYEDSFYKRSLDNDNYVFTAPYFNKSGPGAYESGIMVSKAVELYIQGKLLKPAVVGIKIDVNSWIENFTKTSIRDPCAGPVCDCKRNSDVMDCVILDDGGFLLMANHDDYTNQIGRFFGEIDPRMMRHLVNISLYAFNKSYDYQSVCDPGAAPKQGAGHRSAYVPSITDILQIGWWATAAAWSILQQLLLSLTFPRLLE
T3 sequence (P54290 945-1091 partner limits assumed): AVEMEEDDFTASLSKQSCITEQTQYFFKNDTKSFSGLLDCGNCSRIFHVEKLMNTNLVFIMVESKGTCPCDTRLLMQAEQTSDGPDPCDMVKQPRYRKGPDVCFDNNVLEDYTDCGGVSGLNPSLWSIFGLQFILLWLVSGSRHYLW
T3 sequence (P54287 whole entry partner): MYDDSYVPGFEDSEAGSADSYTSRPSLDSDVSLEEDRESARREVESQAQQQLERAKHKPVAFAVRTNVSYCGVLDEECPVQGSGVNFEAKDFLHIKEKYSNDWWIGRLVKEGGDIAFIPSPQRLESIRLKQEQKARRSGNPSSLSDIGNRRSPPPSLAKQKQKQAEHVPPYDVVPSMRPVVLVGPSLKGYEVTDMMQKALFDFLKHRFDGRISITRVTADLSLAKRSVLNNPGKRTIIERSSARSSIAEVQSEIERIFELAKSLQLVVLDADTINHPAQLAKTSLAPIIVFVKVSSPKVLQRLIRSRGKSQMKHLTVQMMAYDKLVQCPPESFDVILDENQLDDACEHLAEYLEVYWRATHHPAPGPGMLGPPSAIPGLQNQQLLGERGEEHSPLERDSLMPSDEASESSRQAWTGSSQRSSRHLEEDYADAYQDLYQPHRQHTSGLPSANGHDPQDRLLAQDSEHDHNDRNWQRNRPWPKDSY

Consider `CC(C)C[C@H](NC(=O)N1CCCCCC1)C(=O)NCCCC(c1ccc(F)cc1)c1ccc(F)cc1` [Example 1, (S)-Azepane-1-carboxylic acid {1-[4,4-bis-(4-fluoro-phenyl)-butylcarbamoyl]-3-methyl-butyl}-amide], for which, in data set [1] (0.25 h, 15 min posttreatment), the responders at 30 mg/kg is 60%. For the same compound, in data set [2], the “SCG K, % blockage at 1 μM” value was 4.3% @ 1 and the “SCG K, % blockage at 10 μM” value is on record as 3% @ 10. In data set [3], the inhibition at 1 µM turned out to be 17% and the inhibition at 10 µM was 16%. Further, the IC50 (usually the concentration that gives 50% inhibition) in data set [4] (setting [8]) came out at 0.82 µM. For the same compound, the “SCG Na, % blockage at 10 μM” value in data set [5] worked out at 14% @ 10.

`CC(C)C[C@H](NC(=O)N1CCCCCC1)C(=O)NC(c1ccccc1)c1ccccc1` [Example 3, (S)-Azepane-1-carboxylic acid [1-(benzhydryl-carbamoyl)-3-methyl-butyl]-amide]: the melting point (as a rule, the temperature, or range, at which the solid turns liquid) fell in the range of 180 to 181 °C. In addition, in data set [2], the “SCG K, % blockage at 10 μM” value amounted to 48% @ 10. Further, the inhibition at 10 µM in data set [3] is 33%. In addition, the IC50 in data set [4] (setting [8]) stood at 4.4 µM. Also, the “SCG Na, % blockage at 10 μM” value in data set [5] worked out at 5% @ 10.

Regarding `CC(C)=CCN(C)[C@@H](CC(C)C)C(=O)NCCCC(c1ccc(F)cc1)c1ccc(F)cc1` [Example 13, (S)-4-Methyl-2-[methyl-(3-methyl-but-2-enyl)-amino]-pentanoic acid [4,4-bis-(4-fluoro-phenyl)-butyl]-amide monohydrochloride], in data set [2], the “SCG K, % blockage at 1 μM” value is given as 10% @ 1 and the “SCG K, % blockage at 10 μM” value is 48% @ 10. For the same compound, in data set [3], the inhibition at 1 µM stood at 23% and the inhibition at 10 µM was 77%. In data set [4] (setting [8]), the IC50 stood at 0.52 µM. In addition, in data set [5], the “SCG Na, % blockage at 10 μM” value turned out to be 95% @ 10. Further, the “Number of Mice Protected from Tonic Convulsions” value in data set [6] (setting [9]) was 3/5.

In the case of `CC(C)C[C@H](NC1CCCCC1)C(=O)NCCCC(c1ccc(F)cc1)c1ccc(F)cc1.Cl` [Example 15, (S)-2-Cyclohexylamino-4-methyl-pentanoic acid [4,4-bis-(4-fluoro-phenyl)-butyl]-amide monohydrochloride], the responders at 30 mg/kg in data set [1] (0.25 h, 15 min posttreatment) was 100%; in data set [1] (0.75 h, 45 min posttreatment), 100%. The inhibition at 1 µM in data set [4] came out at 62%. Also, the inhibition at 10 µM in data set [4] is 87%. Moreover, the “Number of Mice Protected from Tonic Convulsions” value is reported as 5/5 in data set [6] (setting [9]); 2/5 in data set [6] (10 mg/Kg iv, 45 min posttreatment); 3/3 in data set [6] (30 mg/Kg iv, 15 min posttreatment); 5/5 in data set [6] (30 mg/Kg iv, 45 min posttreatment).

`CC(C)C[C@H](NC1CCCCC1)C(=O)N1CCN(C(c2ccc(F)cc2)c2ccc(F)cc2)CC1` [Example 38, (S)-1-{4-[Bis-(4-fluoro-phenyl)-methyl]-piperazin-1-yl}-2-cyclohexylamino-4-methyl-pentan-1-one]: the responders at 30 mg/kg in data set [1] (0.25 h, 15 min posttreatment) was 80%; in data set [1] (0.75 h, 45 min posttreatment) it was 20%. For the same compound, the values for the IC50 in data set [7] and in data set [4] (setting [10]) were 0.61 µM and 1.2 µM, respectively.

On to `CC(C)C[C@@H](C(=O)N1CCN(C(c2ccc(F)cc2)c2ccc(F)cc2)CC1)N(C)C1CCCCC1` [Example 40, (S)-1-{4-[Bis-(4-fluoro-phenyl)-methyl]-piperazin-1-yl}-2-(cyclohexyl-methyl-amino)-4-methyl-pentan-1-one], for which the responders at 30 mg/kg in data set [1] (0.25 h, 15 min posttreatment) is 0%; in data set [1] (0.75 h, 45 min posttreatment), 0%. Further, the IC50 in data set [7] was 0.5 µM; in data set [4] (setting [10]) it was 0.7 µM.

`CC(C)CCN(C)[C@@H](CC(C)C)C(=O)N1CCN(C(c2ccc(F)cc2)c2ccc(F)cc2)CC1` [Example 46, 1-{4-[Bis-(4-fluoro-phenyl)-methyl]-piperazin-1-yl}-4-methyl-2-[methyl-(3-methyl-butyl)-amino]-pentan-1-one dihydrochloride]: the responders at 10 mg/kg is 80% in data set [1] (0.25 h, 15 min posttreatment) and 20% in data set [1] (0.75 h, 45 min posttreatment). In addition, the half-maximal inhibitory concentration (IC50) in data set [7] is 1.8 µM; in data set [4] (setting [10]), 0.33 µM.

On to `N[C@@H](Cc1ccccc1)C(=O)N1CCN(C(c2ccc(F)cc2)c2ccc(F)cc2)CC1` [Example 52, (S)-2-Amino-1-(4-[bis-(4-fluoro-phenyl)-methyl]-piperazin-1-yl}-3-phenyl-propan-1-one], for which the responders at 30 mg/kg in data set [1] (0.25 h, 15 min posttreatment) was 100%. In data set [1] (0.75 h, 45 min posttreatment), the responders at 30 mg/kg was 80%. In data set [7], the IC50 was determined as 0.43 µM. In data set [4], the inhibition at 1 µM worked out at 23% and the inhibition at 10 µM is 99%.
